Source: PMC10108740 (Journal of Medicinal Chemistry, 2023)
Read-outs that look alike come from different tables or passages of the source.

What was measured:
[1] = in vitro; settings: human
[2] = in vitro; settings: human; remark: listed apart in the source
[3] = in vitro; settings: human; remark: listed apart in the source
[4] = tested on: SARS-CoV-2 (WA-1); experiment: Antiviral immunofluorescence assay, SARS-CoV-2 WA1 in Vero-TMPRSS2 cells; assay type: cell-based
[5] = tested on: SARS-CoV-2 (WA-1); experiment: Antiviral immunofluorescence assay, SARS-CoV-2 WA1 in Huh7.5 cells; assay type: cell-based
[6] = tested on: SARS-CoV-2 WA1 (USA-WA1/2020); experiment: Antiviral immunofluorescence assay, SARS-CoV-2 WA1 in Calu-3 cells; assay type: cell-based; settings: for EC50 / EC90: immunofluorescence, 44 hpi, mean ± SD
[7] = in vitro; settings: chlorocebus aethiops
Protocol: (§1) Cells were seeded as per SARS-CoV-2 infection studies in opaque walled 96-well cell culture plates and incubated overnight for Huh7.5 and Vero-TMPRSS2 cells and for an additional 24h for Calu-3 cells. Compounds or controls were added at the indicated concentrations. Cells were incubated for 48h for Huh7.5 cells, 40–44h for Calu-3 cells, or 30–32h for Vero-TMPRSS2 cells at 37 °C and 5% CO2, an equal volume of CellTiter-Glo reagent (Cat. #G7570, Promega) or CellTiter-Glo 2.0 reagent (Cat. #G9241, Promega) was added and mixed, and luminescence was recorded on a Veritas Microplate Luminometer (Turner BioSystems) according to manufacturer recommendations. Percent viability was calculated compared to DMSO controls, and CC50 values were calculated using Prism 9.
(§2) Calu-3 cells were treated for 44h (A), Huh7.5 cells were treated for 48h (B), and Vero-
(§3) TMPRSS2 cells were treated for 38h (C) as in infection assays for each cell type. Cell viability
(§4) was measured by CellTiter-Glo assay and reported as % cell viability relative to DMSO controls.
(§5) Best fit curves calculated in Graphpad Prism 9 were used
(§6) to compute cytotoxic concentration 50% (CC50) values in Tables 1-3.

[8] = tested on: SARS-CoV-2 (WA-1); experiment: Antiviral immunofluorescence assay, SARS-CoV-2 WA1 in human pluripotent stem cell-derived lung cells; assay type: cell-based; settings: 24 hpi
[9] = hamster, in vivo; cited from earlier work
[10] = tested on: SARS-CoV-2 B.1.351 (Beta); experiment: microbe, parasite or virus in culture; assay type: cell-based; settings: Severe acute respiratory syndrome coronavirus 2, Calu-3
[11] = tested on: SARS-CoV-2 B.1.617.2 (Delta); experiment: microbe, parasite or virus in culture; assay type: cell-based; settings: Severe acute respiratory syndrome coronavirus 2, Calu-3
[12] = tested on: SARS-CoV-2 P.1 (Gamma); experiment: microbe, parasite or virus in culture; assay type: cell-based; settings: Severe acute respiratory syndrome coronavirus 2, Calu-3
[13] = tested on: Calu-3 cells; settings: human, 44 h
[14] = tested on: SARS-CoV-2 B.1.1.7 (Alpha); experiment: microbe, parasite or virus in culture; assay type: cell-based; settings: Severe acute respiratory syndrome coronavirus 2, Calu-3
[15] = tested on: SARS-CoV-2 BA.1 (Omicron); experiment: microbe, parasite or virus in culture; assay type: cell-based; settings: Severe acute respiratory syndrome coronavirus 2, Calu-3
[16] = tested on: SARS-CoV-2 (WA-1); design: method as in PMID 34310217; settings: Huh7.5 cells; read-out: EC50, inhibition of SARS-CoV-2 replication; cited from earlier work
[17] = tested on: SARS-CoV-2 WA1 (USA-WA1/2020); design: method as in Schooley et al.[24]; settings: Calu-3 cells, ref Schooley et al.[24]; cited from earlier work
[18] = tested on: Calu-3 cells; settings: cited from earlier work
[19] = tested on: Vero-TMPRSS2 cells; experiment: Cell viability assay (CellTiter-Glo), Vero-TMPRSS2 cells; settings: uninfected Vero-TMPRSS2 cells, 38h
Protocol: as §1, §2, §3, §4, §5, §6

[20] = tested on: Calu-3 cells; experiment: Cell viability assay (CellTiter-Glo), Calu-3 cells; settings: uninfected Calu-3 cells, 44h
[21] = tested on: human pluripotent stem cell-derived lung cells; experiment: Cytotoxicity by relative number of nuclei, human pluripotent stem cell-derived lung cells; settings: PSC-lung cells, relative number of nuclei (IF) vs vehicle-treated wells
[22] = tested on: Huh7.5 cells; experiment: Cell viability assay (CellTiter-Glo), Huh7.5 cells; settings: uninfected Huh7.5 cells, 48h
[23] = Severe acute respiratory syndrome coronavirus 2, Vero/TMPRSS2
[24] = Severe acute respiratory syndrome coronavirus 2, WA-1, Vero-TMPRSS2 cells, immunofluorescence, 38 hpi
[25] = Severe acute respiratory syndrome coronavirus 2, WA-1, Huh7.5 cells, immunofluorescence, 48 hpi, read-out: EC50
[26] = Severe acute respiratory syndrome coronavirus 2, WA-1, Huh7.5 cells, immunofluorescence, 48 hpi, read-out: EC90
[27] = Severe acute respiratory syndrome coronavirus 2, Calu-3, WA1, Calu-3 cells, read-out: EC50
[28] = Severe acute respiratory syndrome coronavirus 2, WA1, Calu-3 cells
[29] = Severe acute respiratory syndrome coronavirus 2, WA-1, PSC-lung cells (ALDA 31616 and H9)
[30] = Severe acute respiratory syndrome coronavirus 2, Huh7.5
[31] = WA1, Calu-3 cells, read-out: EC50
[32] = WA-1, Vero-TMPRSS2 cells, immunofluorescence, 38 hpi
[33] = WA-1, Vero-TMPRSS2 cells, immunofluorescence, 38 hpi, read-out: EC50
[34] = WA-1, Huh7.5 cells, immunofluorescence, 48 hpi, read-out: EC50
[35] = WA-1, Huh7.5 cells, immunofluorescence, 48 hpi, read-out: EC90
[36] = WA-1, PSC-lung cells (ALDA 31616 and H9)

Compound: CCCCCCCCCCCCCCCCCCOC[C@H](COP(=O)(O)OC[C@H]1O[C@@](C#N)(c2ccc3c(N)ncnn23)[C@H](O)[C@@H]1O)OCc1ccc(OC)c(F)c1 [Compound 9g, ((2R,3S,4R,5R)-5-(4-Aminopyrrolo[2,1-f][1,2,4]triazin-7-yl)-5-cyano-3,4-dihydroxytetrahydrofuran-2-yl)methyl ((R)-2-((3-fluoro-4-methoxybenzyl)oxy)-3-(octadecyloxy)propyl) hydrogen phosphate]
- CC50 at 48 h [1]: 70100 nM
- CC50 at 24 h [2]: > 20000 nM
- CC50 at 44 h [3]: 50500 nM
- EC50 [4, 23]: 178 ± 57 nM
- EC90 [4, 24]: 294 ± 62 nM
- EC50 [5, 25]: 60 ± 37 nM
- EC90 [5, 26]: 212 ± 86 nM
- EC50 [6, 27]: 77 ± 27 nM
- EC90 [6, 28]: 145 ± 54 nM
- CC50 [7]: > 100000 nM
- EC50 [8, 29]: 167 ± 55 nM
- EC90 [8, 29]: 348 ± 121 nM

Compound: CCCCCCCCCCCCCCCCOC[C@H](COP(=O)(O)OC[C@H]1O[C@@](C#N)(c2ccc3c(N)ncnn23)[C@H](O)[C@@H]1O)OCc1ccc(OC)c(F)c1 [Compound 11g, ((2R,3S,4R,5R)-5-(4-Aminopyrrolo[2,1-f][1,2,4]triazin-7-yl)-5-cyano-3,4-dihydroxytetrahydrofuran-2-yl)methyl ((R)-2-((3-fluoro-4-methoxybenzyl)oxy)-3-(hexadecyloxy)propyl) hydrogen phosphate]
- CC50 at 48 h [1]: 59000 nM
- CC50 at 24 h [2]: > 20000 nM
- CC50 at 44 h [3]: 75700 nM
- EC50 [4, 23]: 406 ± 87 nM
- EC90 [4, 24]: 858 ± 249 nM
- EC50 [5, 25]: 50 ± 22 nM
- EC90 [5, 26]: 103 ± 47 nM
- EC50 [6, 27]: 51 ± 18 nM
- EC90 [6, 28]: 240 ± 131 nM
- CC50 [7]: > 100000 nM
- EC50 [8, 29]: 130 ± 56 nM
- EC90 [8, 29]: 267 ± 19 nM

Compound: CCCCCCCCCCCCCCOC[C@H](COP(=O)(O)OC[C@H]1O[C@@](C#N)(c2ccc3c(N)ncnn23)[C@H](O)[C@@H]1O)OCc1ccccc1 [Compound 12a, ((2R,3S,4R,5R)-5-(4-Aminopyrrolo[2,1-f][1,2,4]triazin-7-yl)-5-cyano-3,4-dihydroxytetrahydrofuran-2-yl)methyl ((R)-2-(benzyloxy)-3-(tetradecyloxy)propyl) hydrogen phosphate]
- CC50 at 48 h [1]: > 100000 nM
- CC50 at 44 h [3]: > 100000 nM
- EC50 [4, 23]: 909 ± 27 nM
- EC90 [4, 24]: 1630 ± 120 nM
- EC50 [5, 30]: 157 ± 400 nM
- EC90 [5, 30]: 479 ± 19 nM
- EC50 [6, 27]: 213 ± 97 nM
- EC90 [6, 28]: 575 ± 251 nM
- CC50 [7]: > 100000 nM

Compound: CCCCCCCCCCCCCCCCCCOC[C@H](COP(=O)(O)OC[C@H]1O[C@@](C#N)(c2ccc3c(N)ncnn23)[C@H](O)[C@@H]1O)OCc1ccccc1 [Compound V2043, 1-O-octadecyl-2-O-benzyl-sn-glyceryl-phospho-RVn]
- oral bioavailability [9]: orally bioavailable
- CC50 at 24 h [2]: > 20000 nM
- EC50 [10]: 146 ± 104 nM
- EC90 [10]: 645 ± 459 nM
- EC50 [11]: 85 ± 24 nM
- EC90 [11]: 484 ± 457 nM
- EC50 [12]: 167 ± 84 nM
- EC90 [12]: 362 ± 42 nM
- CC50 at 44 h [3]: 58300 nM
- CC50 [13]: 58300 nM
- EC50 [4, 23]: 216 ± 38 nM
- EC90 [4, 24]: 403 ± 128 nM
- EC50 [5, 25]: 140 ± 63 nM
- EC90 [5, 26]: 424 ± 267 nM
- EC50 [14]: 146 ± 95 nM
- EC90 [14]: 517 ± 169 nM
- EC50 ([6]; Severe acute respiratory syndrome coronavirus 2, Calu-3, WA1, Calu-3 cells): 138 nM
- EC90 [6, 28]: 323 ± 157 nM
- EC50 [6, 31]: 136 ± 56 nM
- CC50 at 38 h [7]: 97900 nM
- EC50 [8, 29]: 382 ± 205 nM
- EC90 [8, 29]: 736 ± 267 nM
- EC50 [15]: 44 ± 12 nM
- EC90 [15]: 359 ± 447 nM
- EC50 [16]: 138 nM

Compound: CCC(CC)COC(=O)[C@H](C)N[P@](=O)(OC[C@H]1O[C@@](C#N)(c2ccc3c(N)ncnn23)[C@H](O)[C@@H]1O)Oc1ccccc1 [RDV, remdesivir]
- EC50 [17]: 230 nM
- EC90 [17]: 310 nM
- CC50 ([18]; Calu-3 cells, ref Schooley et al.[24]): > 100000 nM

Compound: N#C[C@@]1(c2ccc3c(N)ncnn23)O[C@H](CO)[C@@H](O)[C@H]1O [RVn, GS-441524]
- CC50 [18]: > 100000 nM

Compound: ((2R,3S,4R,5R)-5-(4-Aminopyrrolo[2,1-f][1,2,4]triazin-7-yl)-5-cyano-3,4-dihydroxytetrahydrofuran-2-yl)methyl ((R)-2-((3-fluoro-4-methoxybenzyl)oxy)-7-(tetradec-5-en-1-yloxy)heptyl) hydrogen phosphate [Compound 10g]
- CC50 [19]: > 100000 nM
- EC90 [4, 32]: 554 ± 54 nM
- EC50 [4, 33]: 300 ± 38 nM
- EC50 [5, 34]: 54 ± 16 nM
- EC90 [5, 35]: 95 ± 27 nM
- CC50 [20]: 58700 nM
- CC50 [21]: > 20000 nM
- fold better potency ([6]; 3-fluoro-4-methoxybenzyl at sn-2 versus unsubstituted benzyl): 2–3 fold
- fold more active than RDV ([6]; Calu-3 cells, based on EC50): 3.3 fold
- EC90 ([6]; WA1, Calu-3 cells): 149 ± 117 nM
- EC50 [6, 31]: 70 ± 3 nM
- EC50 [8, 36]: 82 ± 13 nM
- EC90 [8, 36]: 175 ± 16 nM
- CC50 [22]: > 100000 nM

Compound: ((2R,3S,4R,5R)-5-(4-Aminopyrrolo[2,1-f][1,2,4]triazin-7-yl)-5-cyano-3,4-dihydroxytetrahydrofuran-2-yl)methyl ((R)-2-(benzyloxy)-7-(tetradec-5-en-1-yloxy)heptyl) hydrogen phosphate [Compound 10a]
- CC50 [19]: > 100000 nM
- EC90 [4, 32]: 570 ± 54 nM
- EC50 [4, 33]: 293 ± 20 nM
- EC50 [5, 34]: 109 ± 55 nM
- EC90 [5, 35]: 224 ± 100 nM
- CC50 [20]: 79200 nM
- CC50 [21]: > 20000 nM
- EC90 ([6]; WA1, Calu-3 cells): 324 ± 127 nM
- EC50 [6, 31]: 193 ± 58 nM
- EC50 [8, 36]: 267 ± 118 nM
- EC90 [8, 36]: 555 ± 250 nM
- CC50 [22]: > 100000 nM
